From ChEMBL document CHEMBL4421722, “Inhibitors of protein prenyltransferases” (2013) come the findings set out here.

Assay [1] is filed under the species Rattus norvegicus. Kind of assay: Inhibition of rat recombinant geranylgeranyltransferase type I expressed in Escherichia coli assessed as residual enzyme activity for geranylgeranylation of K-Ras4B at 50 uM incubated for 30 mins in presence of [3H]GGPP by scintillation counting assay relative to control.
The species entered for assay [2] is Rattus norvegicus. The experiment in a line: Inhibition of rat recombinant geranylgeranyltransferase type I expressed in Escherichia coli assessed as residual enzyme activity for geranylgeranylation of RhoA at 50 uM incubated for 30 mins in presence of [3H]GGPP by scintillation counting assay relative to control.

Take `C=CCS[C@H]1[C@@H](C(=O)O)[C@H](c2ccc(Cl)cc2)N(S(=O)(=O)c2ccccc2C)[C@@H]1CCCCCC`: the Activity was found to be 24.9% in assay [1] and 6% in assay [2].

`Cc1ccc(S(=O)(=O)N2C[C@@H](C(=O)O)[C@H](SCCc3ccccc3)C[C@H]2c2ccccc2F)cc1`: the Activity is 3.4 to 6.8% in assay [1] and 3.1% in assay [2].

`C=CCS[C@H]1[C@@H](C(=O)O)[C@H](c2ccc(Br)cc2)N(S(=O)(=O)c2ccc(C)cc2)[C@@H]1CCCCCC`: the results for the Activity in assay [1] and in assay [2] were 15.5% and 5.5%, respectively.

Turning to `Cc1ccc(S(=O)(=O)N2C[C@@H](C(=O)O)[C@H](Sc3ccc(Cl)cc3)C[C@H]2c2cccc(Br)c2)cc1`, the Activity lay in the range of 20.4 to 22.8% in assay [1] and 0.2 to 3.2% in assay [2].

Take `O=C(O)C1=CC[C@@H](c2ccc(Cl)cc2)N(S(=O)(=O)c2ccc(Cl)cc2)[C@H]1c1cccc(Br)c1`: the Activity in assay [1] was 8.6 to 17.3%; in assay [2] it was 5%.

For `Cc1ccccc1S(=O)(=O)N1C[C@@H](C(=O)O)[C@H](SCc2ccccc2)C[C@H]1c1ccc(Cl)cc1`, the figures for the Activity in assay [1] and in assay [2] were 8.7 to 12% and 7.8%, respectively.

In the case of `Cc1ccc([C@@H]2C[C@@H](SCCc3ccccc3)[C@H](C(=O)O)CN2S(=O)(=O)c2ccc(Cl)cc2)cc1`, the results for the Activity in assay [1] and in assay [2] were 22.7 to 27% and 9.5%, respectively.

For the molecule `Cc1ccc([C@@H]2CC=C(C(=O)O)[C@H](c3cccc(Br)c3)N2S(=O)(=O)c2ccc(Cl)cc2)cc1`, the Activity in assay [1] was 8.4 to 19.9%; in assay [2], 7.4%.

With `C=CCS[C@H]1[C@@H](C(=O)O)[C@H](c2ccc(Cl)cc2)N(S(=O)(=O)c2ccccc2C)[C@@H]1CC1CCCC1`, the Activity in assay [1] turned out to be 22.4%; in assay [2] it was 4.9%.

Consider `C=CCS[C@H]1[C@@H](C(=O)O)[C@H](c2ccc(OC)c(OC)c2)N(S(=O)(=O)c2ccc(C)cc2)[C@@H]1CCCCCC`, for which the Activity in assay [1] stood at 22.3%; in assay [2] it was 8.1%.

In the case of `CCOc1ccc([C@@H]2C[C@@H](SCCc3ccccc3)[C@H](C(=O)O)CN2S(=O)(=O)c2ccc(C)cc2)cc1`, the Activity in assay [1] is 24.6 to 37.2%; in assay [2] it was 14.5%.

On to `CCOc1ccc([C@@H]2C[C@@H](SCc3ccc(Cl)cc3)[C@H](C(=O)O)CN2S(=O)(=O)c2ccc(C)cc2)cc1`, for which the figures for the Activity in assay [1] and in assay [2] were 3.1 to 3.7% and 2.6%, respectively.

Consider `Cc1ccccc1S(=O)(=O)N1C[C@@H](C(=O)O)[C@H](SCCc2ccccc2)C[C@H]1c1ccc(Cl)cc1`, for which the Activity in assay [1] was 11.2 to 12.6%; in assay [2] it was 4.1%.

Consider `Cc1ccccc1S(=O)(=O)N1[C@@H](c2ccc(F)cc2)C(C(=O)O)=CC[C@H]1c1ccc(Cl)cc1`, for which the Activity is 15.6 to 28.8% in assay [1] and 12.6% in assay [2].

In the case of `CCCCS[C@@H]1C[C@@H](c2ccc(C)cc2)N(S(=O)(=O)c2ccccc2C)C[C@H]1C(=O)O`, the results for the Activity in assay [1] and in assay [2] were 43.5 to 43.7% and 19.8%, respectively.

Turning to `Cc1ccc(S(=O)(=O)N2C[C@@H](C(=O)O)[C@H](SCc3ccc(Cl)cc3)C[C@H]2c2cccc(Br)c2)cc1`, the Activity was 7.8 to 8% in assay [1] and 3.2% in assay [2].

On to `Cc1ccccc1S(=O)(=O)N1[C@@H](c2ccc(Cl)cc2)C(C(=O)O)=C[C@H]1CC1CCCC1`, for which the values for the Activity in assay [1] and in assay [2] were 23.7% and 9.1%, respectively.

With `COc1ccc([C@@H]2C[C@@H](Sc3ccc(Cl)cc3)[C@H](C(=O)O)CN2S(=O)(=O)c2ccccc2C)cc1`, the Activity in assay [1] was 72.2%; in assay [2] it was 17.7%.

Turning to `Cc1ccc(S(=O)(=O)N2C[C@@H](C(=O)O)[C@H](SCCc3ccccc3)C[C@H]2c2ccc(Cl)cc2)cc1`, the Activity in assay [1] was 15.1 to 20.8%; in assay [2] it was 5.9%.

Turning to `Cc1ccc(S(=O)(=O)N2C[C@@H](C(=O)O)[C@H](SCCC(C)C)C[C@H]2c2cccc(Cl)c2)cc1`, the values for the Activity in assay [1] and in assay [2] were 25.1 to 26% and 12%, respectively.

For the molecule `Cc1ccc(S(=O)(=O)N2C[C@@H](C(=O)O)[C@H](Sc3ccc(Cl)cc3)C[C@H]2c2ccccc2)cc1`, the Activity was 64.1% in assay [1] and 14.2% in assay [2].

In the case of `COc1ccc(S[C@H]2[C@@H](C(=O)O)[C@H](c3ccc(Cl)cc3)N(S(=O)(=O)c3ccc(Cl)cc3)[C@@H]2C(C)C)cc1`, the Activity turned out to be 48.7% in assay [1] and 8% in assay [2].

In the case of `Cc1ccccc1S(=O)(=O)N1C[C@@H](C(=O)O)[C@H](Sc2ccc(Cl)cc2)C[C@H]1c1ccc(Cl)cc1`, the Activity is 83.5% in assay [1] and 13% in assay [2].

For the molecule `COc1ccc([C@@H]2C[C@@H](SCc3ccc(Cl)cc3)[C@H](C(=O)O)CN2S(=O)(=O)c2ccccc2C)cc1`, the Activity in assay [1] is 23.9 to 30.9%; in assay [2], 0.5%.

Take `Cc1ccc([C@H]2C(C(=O)O)=CC[C@@H](c3ccc(Cl)c(Cl)c3)N2S(=O)(=O)c2ccc(C)cc2)cc1`: the Activity was 12.4 to 17.4% in assay [1] and 15.6% in assay [2].

Consider `Cc1ccc([C@@H]2C[C@@H](Sc3ccc(Cl)cc3)[C@H](C(=O)O)CN2S(=O)(=O)c2ccc(Cl)cc2)cc1`, for which the values for the Activity in assay [1] and in assay [2] were 42.3% and 3.3%, respectively.

Turning to `COc1ccc([C@@H]2C[C@@H](Sc3ccccc3)[C@H](C(=O)O)CN2S(=O)(=O)c2ccc(Cl)cc2)cc1`, the Activity in assay [1] stood at 97.2%; in assay [2] it was 11.9%.

Consider `Cc1ccc(S(=O)(=O)N2[C@@H](c3cccc(C)c3)C(C(=O)O)=CC[C@H]2c2ccc(Cl)c(Cl)c2)cc1`, for which the Activity is 12.6 to 20.2% in assay [1] and 10.3% in assay [2].

Take `Cc1ccc(S(=O)(=O)N2C[C@@H](C(=O)O)[C@H](SCc3ccccc3)C[C@H]2c2cccc(Cl)c2)cc1`: the Activity in assay [1] was 11.5 to 18.1%; in assay [2] it was 8.3%.

As to `Cc1ccc(S(=O)(=O)N2C[C@@H](C(=O)O)[C@H](SCCC(C)C)C[C@H]2c2cccc(Br)c2)cc1`, the Activity is 13.7 to 19.2% in assay [1] and 2.3% in assay [2].

Consider `C=CCS[C@H]1[C@@H](C(=O)O)[C@H](c2ccc(Cl)cc2)N(S(=O)(=O)c2ccccc2C)[C@@H]1CCC`, for which the Activity in assay [1] was 28.4%; in assay [2], 8.9%.

On to `C=CCS[C@H]1[C@@H](C(=O)O)[C@H](c2ccc(C(C)C)cc2)N(S(=O)(=O)c2ccc(C)cc2)[C@@H]1CC1CCCC1`, for which the Activity is 31.7% in assay [1] and 6.1% in assay [2].

For the molecule `CCc1ccc([C@@H]2C[C@@H](SCCc3ccccc3)[C@H](C(=O)O)CN2S(=O)(=O)c2ccc(C)cc2)cc1`, the Activity in assay [1] is 2.3 to 3%; in assay [2], 2.9%.

On to `CCCCCC[C@@H]1[C@@H](Sc2ccc(C)cc2)[C@@H](C(=O)O)[C@H](c2ccc(Cl)c(Cl)c2)N1S(=O)(=O)c1ccc(C)cc1`, for which the Activity in assay [1] was 21.3%; in assay [2] it was 9.2%.

For `COc1ccc([C@@H]2C[C@@H](SCc3ccc(Cl)cc3)[C@H](C(=O)O)CN2S(=O)(=O)c2ccccc2)cc1`, the Activity is 29.2 to 31.9% in assay [1] and 13.4% in assay [2].

Take `Cc1ccc([C@@H]2C[C@@H](Sc3ccc(Cl)cc3)[C@H](C(=O)O)CN2S(=O)(=O)c2ccccc2C)cc1`: the results for the Activity in assay [1] and in assay [2] were 4 to 6% and -4.7 to 10.5%, respectively.

Take `Cc1ccc(S(=O)(=O)N2[C@@H](c3cccc(C)c3)C(C(=O)O)=CC[C@H]2c2cccc(Br)c2)cc1`: the figures for the Activity in assay [1] and in assay [2] were 16.1 to 31.9% and 14.3%, respectively.

As to `CCCCS[C@@H]1C[C@@H](c2cccc(Cl)c2)N(S(=O)(=O)c2ccc(C)cc2)C[C@H]1C(=O)O`, the Activity is 8.5 to 16.7% in assay [1] and -1.2% in assay [2].

Turning to `Cc1cccc([C@H]2C(C(=O)O)=CC[C@@H](c3ccc(Cl)cc3)N2S(=O)(=O)c2ccccc2C)c1`, the values for the Activity in assay [1] and in assay [2] were 15.6 to 81.1% and 12.4%, respectively.

Regarding `Cc1ccc(S(=O)(=O)N2[C@@H](c3ccc(Br)cc3)C(C(=O)O)=CC[C@H]2c2ccc(Cl)c(Cl)c2)cc1`, the values for the Activity in assay [1] and in assay [2] were 18.7 to 22.8% and 11.3%, respectively.

Regarding `C=CCS[C@H]1[C@@H](C(=O)O)[C@H](c2ccc(Cl)c(Cl)c2)N(S(=O)(=O)c2ccc(C)cc2)[C@@H]1CCCCCC`, the Activity in assay [1] stood at 15.1%; in assay [2], 6.8%.

For `Cc1ccccc1S(=O)(=O)N1[C@@H](c2ccccc2F)C(C(=O)O)=CC[C@H]1c1ccc(Cl)cc1`, the Activity stood at 8.4% in assay [1] and 4.1% in assay [2].

Consider `Cc1ccc(S(=O)(=O)N2[C@H](CC3CCCC3)[C@@H](SCCC(=O)OC(C)(C)C)[C@@H](C(=O)O)[C@@H]2c2cccc(F)c2)cc1`, for which the Activity in assay [1] was 31.9%; in assay [2], 8.2%.

In the case of `Cc1ccc(S(=O)(=O)N2[C@@H](c3cccc(F)c3)C(C(=O)O)=CC[C@H]2c2cccc(Br)c2)cc1`, the Activity in assay [1] was 17 to 85.6%; in assay [2], 15%.

Regarding `Cc1ccccc1S(=O)(=O)N1[C@@H](c2cccc(Br)c2)C(C(=O)O)=CC[C@H]1c1ccc(Cl)cc1`, the Activity in assay [1] was 10.6 to 19.2%; in assay [2] it was 8.8%.

Regarding `CCCC[C@@H]1[C@@H](Sc2ccc(OC)cc2)[C@@H](C(=O)O)[C@H](c2cccc(F)c2)N1S(=O)(=O)c1ccc(C)cc1`, the Activity in assay [1] amounted to 27.4%; in assay [2], 3.5%.

On to `Cc1ccc(S(=O)(=O)N2C[C@@H](C(=O)O)[C@H](Sc3ccccc3)C[C@H]2c2cccc(Cl)c2)cc1`, for which the Activity in assay [1] came out at 87.5%; in assay [2] it was 8.3%.

As for `Cc1ccccc1S(=O)(=O)N1C[C@@H](C(=O)O)[C@H](SCc2ccc(Cl)cc2)C[C@H]1c1ccc(Cl)cc1`, the values for the Activity in assay [1] and in assay [2] were 21.3 to 24.5% and 13%, respectively.

`Cc1ccc([C@@H]2C[C@@H](SCc3ccccc3)[C@H](C(=O)O)CN2S(=O)(=O)c2ccccc2C)cc1`: the figures for the Activity in assay [1] and in assay [2] were 32 to 35.6% and 17.5%, respectively.

As to `CCCCCC[C@@H]1[C@@H](Sc2ccc(C)cc2)[C@@H](C(=O)O)[C@H](c2ccc(Cl)cc2)N1S(=O)(=O)c1ccccc1`, the Activity in assay [1] was found to be 15%; in assay [2], 7.5%.

Take `Cc1ccc(S(=O)(=O)N2C[C@@H](C(=O)O)[C@H](SCc3ccccc3)C[C@H]2c2ccccc2F)cc1`: the Activity was 12.8 to 15.7% in assay [1] and 8.1% in assay [2].

On to `COc1ccc([C@@H]2C[C@@H](SCc3ccc(Cl)cc3)[C@H](C(=O)O)CN2S(=O)(=O)c2ccc(Cl)cc2)cc1`, for which the Activity was 20.8 to 27.1% in assay [1] and 8.5% in assay [2].
